Results as given in US10888089B2, “Methods and compositions for controlling fungus-growing ants” (UNIVERSITE PARIS EST CRETEIL VAL DE MARNE, priority 2016, dated 2021).
pIC50: −log10 of the molar value.

How the values were obtained:
[1] = tested on: 5 actinomycete strains isolated from fungus-growing ants; assay: Antibacterial activity using discs in Petri dishes, average of 5 actinomycete strains; format: cell-based, Streptomyces, Tsukumurella and Gordonia
Experimental: (§1) The general principle is to test in solid medium the culture of the strain in the presence of a paper disc impregnated with the molecule to be tested. For each molecule tested at least three dilutions were prepared. In the presence of a molecule, a halo, the diameter of which is related to the intensity of the inhibitory effect, appears around the paper disc. This approach provides a simple way to select antibacterial molecules and to determine the minimum inhibitory concentration (MIC) of bacterial growth.
(§2) Antibacterial activity can be measured in liquid medium (in a liquid bacterial culture) or in solid medium (on an agar Petri dish) by adding a known concentration of antibiotic. In liquid medium, inhibition is measured by an optical density (OD); in solid medium, growth inhibition is estimated by the diameter of the halo corresponding to the zone where no growth is observed.
(§3) From the isolates, a sample is taken. This is suspended in 1 mL of physiological saline solution without measuring OD.
(§4) Inoculation is performed with 100 μL of suspension using a spreader. For undiluted essential oil tests, a disc soaked in essential oil is placed in the centre of the dish. For dilutions (½; ⅕), both discs are placed in the same dish. Dilutions were prepared by diluting the essential oils in sunflower oil. A control dish was prepared and consists of an inoculate in the absence of essential oil. A second control, this time with a disc impregnated with sunflower oil, was also prepared to confirm the absence of an effect. All products were sterilised and the experiments were performed under a hood in sterile conditions.
(§5) After 4 days of growth, the inhibition diameters were measured.
This step made it possible to isolate, from ants belonging to the species Acromyrmex octospinosus, 15 actinomycete strains including 12 belonging to the genus Tsukumurella, two to the genus Streptomyces and one to the genus Gordonia. In total, 5 strains belonging to the genera Streptomyces, Tsukumurella and Gordonia were selected for the analysis of antibacterial substances.

[2] = tested on: Streptomyces (NA 2B3); assay: Antibacterial activity using discs in Petri dishes, strain Streptomyces NA2B3; format: cell-based
Experimental: as §1, §2, §3, §4, §5

[3] = tested on: laccase; assay: Laccase inhibition (ABTS colorimetric method), ant sample; format: biochemical; details: anti-laccase activity, ABTS substrate, read-out: IC50 Acromyrmex octospinosus
Experimental: (§6) Crushing was performed in mortars placed on ice, using pestles. […] After obtaining crushed matter of homogeneous texture, the whole was centrifuged. Centrifugation was performed at 4° C., 15,000 rpm for 20 min. For protein precipitation, the supernatant was 80% saturated with ammonium sulphate ((NH4)2SO4). After total dissolution of the ammonium sulphate, the solution obtained is placed at 4° C. for 12 hours. The solution was then centrifuged at a temperature of 4° C., at 15,000 rpm, for 20 min. The pellet obtained is redissolved in a minimum of cold distilled water and then dialysed against 5 litres of distilled water at 4° C. for 12 hours. The extract thus obtained constitutes the crude enzyme extract. These extracts were aliquoted and then stored at -20° C. […] Briefly, ABTS is diluted to 27.4 mg/L in […] buffer solution (pH 5.2). 150 μL of ABTS solution is incubated with 100 μL of test solution and then incubated for 30 min at 37° C. The measurement of OD at 405 nm is used to determine the amount of oxidised ABTS using Beer-Lambert's law (epsilon=36,000 mM). […] The method was published by Bourbonnais et al. in 1990 (Oxidation of non-phenolic substrates. An expanded role for laccase in lignin biodegradation. FEBS, 1990, 267, 99-102). […] The inhibitors selected for analysis are compounds having antioxidant capacity.

[4] = tested on: laccase; assay: Laccase inhibition (ABTS colorimetric method), fungus garden sample; format: biochemical; details: anti-laccase activity, ABTS substrate, read-out: IC50 Leucophorus gongylophorus
Experimental: as §6

[5] = tested on: laccase activity of Acromyrmex octospinosus and of Leucophorus gongylophorus; assay: Laccase inhibition (ABTS), ant and fungus garden samples together; format: biochemical; details: for anti-laccase activity (in words): data not shown
Experimental: Crushing was performed in mortars placed on ice, using pestles. Ants (2 g) and fungus garden (2 g) were crushed in 10 mL of distilled water refrigerated at 4° C. After obtaining crushed matter of homogeneous texture, the whole was centrifuged. Centrifugation was performed at 4° C., 15,000 rpm for 20 min.
For protein precipitation, the supernatant was 80% saturated with ammonium sulphate ((NH4)2SO4). After total dissolution of the ammonium sulphate, the solution obtained is placed at 4° C. for 12 hours. The solution was then centrifuged at a temperature of 4° C., at 15,000 rpm, for 20 min. The pellet obtained is redissolved in a minimum of cold distilled water and then dialysed against 5 litres of distilled water at 4° C. for 12 hours. The extract thus obtained constitutes the crude enzyme extract. These extracts were aliquoted and then stored at −20° C.
Laccase activity was evaluated using 2,2′-azino-bis(3-ethylbenzthiazoline-6-sulphonic acid) (ABTS) as oxidation control substrate. Briefly, ABTS is diluted to 27.4 mg/L in Mcllvain buffer solution (pH 5.2). 150 μL of ABTS solution is incubated with 100 μL of test solution and then incubated for 30 min at 37° C. The measurement of OD at 405 nm is used to determine the amount of oxidised ABTS using Beer-Lambert's law (epsilon=36,000 mM).
The determination of laccase activity is based on a colorimetric method where the substrate ABTS (2,2′-azino-bis(3-ethylbenzthiazoline-6-sulphonic acid) in reduced form (colourless) is oxidised (green colour) in the presence of the enzyme. The method was published by Bourbonnais et al. in 1990 (Oxidation of non-phenolic substrates. An expanded role for laccase in lignin biodegradation. FEBS, 1990, 267, 99-102). To test the inhibition of laccase activity, the molecule tested is added to the reaction mixture in amounts ranging from 0.1 mM to 100 mM. The inhibitors selected for analysis are compounds having antioxidant capacity.

SMILES | Average inhibition diameters ([1]; Table 6, 20%) | inhibition diameter ([2]; Table 5, 20%) [cm] | pIC50 [3] | pIC50 [4] | further results
O=CC=Cc1ccccc1 [Cinnamaldehyde] | 4.5 ± 0.6 | 3.0 ± 1.5 | – | – | Average inhibition diameters ([1]; Table 6, 10%): 2.9 ± 0.6
O=C1O[C@H]([C@@H](O)CO)C(O)=C1O [Ascorbic acid] | – | – | > 3.60 | > 3.60 | –
COc1cc(/C=C/C(=O)O)ccc1O [Ferulic acid] | – | – | > 4.00 | > 4.30 | –
O=C(O)c1cc(O)c(O)c(O)c1 [Gallic acid] | – | – | > 4.30 | > 4.30 | –
Cc1ccc(C(C)C)c(O)c1 [Thymol] | 2.2 ± 0.3 | 1.7 ± 0.8 | – | – | anti-laccase activity (in words) [5]: anti-laccase activity was observed
CC[C@H]1OC(=O)[C@H](C)[C@@H](O[C@H]2C[C@@](C)(OC)[C@@H](O)[C@H](C)O2)[C@H](C)[C@@H](O[C@@H]2O[C@H](C)C[C@H](N(C)C)[C@H]2O)[C@](C)(O)C[C@@H](C)C(=O)[C@H](C)[C@@H](O)[C@]1(C)O [Erythromycin, reference compound] | 3.6 ± 0.4 | 4.3 ± 0.3 | – | – | Average inhibition diameters ([1]; Table 4, 10%): 3.2 ± 0.4 cm; Average inhibition diameters ([1]; Table 4, 20%): 3.6 ± 0.4 cm; Average inhibition diameters ([1]; Table 6, 10%): 3.2 ± 0.4; inhibition diameter ([2]; Table 3, 10%): 2.2 ± 0.3 cm; inhibition diameter ([2]; Table 3, 20%): 3.6 ± 0.4 cm; inhibition diameter ([2]; Table 5, 10%): 3.5 ± 0.5 cm
C=CCc1ccc(O)c(OC)c1 [Eugenol] | 2.9 ± 0.7 | – | – | – | anti-laccase activity (in words) [5]: anti-laccase activity was observed
N[C@@H](CS)C(=O)O [L-Cysteine] | – | – | > 3.60 | > 3.60 | inhibition of laccase activity ([5]; at concentrations above 0.5 mM (FIG. 1)): more than 80%
Cc1ccc(C(C)C)cc1O [Carvacrol] | 2.4 ± 0.3 | 2.2 ± 0.3 | – | – | –
O=S(O)(O)=S [Sodium thiosulfate] | – | – | > 3.60 | > 3.60 | –
COc1cc(C(=O)O)cc(OC)c1O [Syringic acid] | – | – | > 3.60 | > 4.00 | –
